Assay results published in paper PMC7587337, “Kaempferol Facilitated Extinction Learning in Contextual Fear Conditioned Rats via Inhibition of Fatty-Acid Amide Hydrolase” (Molecules, 2020).

Experiments:
[1] = molecular target: T1, fatty-acid amide hydrolase (FAAH) (Homo sapiens, UniProt O00519); assay: FAAH inhibitor screening assay kit (Cayman […]), percent inhibition at […]; type: biochemical
T1 sequence (O00519 1-579): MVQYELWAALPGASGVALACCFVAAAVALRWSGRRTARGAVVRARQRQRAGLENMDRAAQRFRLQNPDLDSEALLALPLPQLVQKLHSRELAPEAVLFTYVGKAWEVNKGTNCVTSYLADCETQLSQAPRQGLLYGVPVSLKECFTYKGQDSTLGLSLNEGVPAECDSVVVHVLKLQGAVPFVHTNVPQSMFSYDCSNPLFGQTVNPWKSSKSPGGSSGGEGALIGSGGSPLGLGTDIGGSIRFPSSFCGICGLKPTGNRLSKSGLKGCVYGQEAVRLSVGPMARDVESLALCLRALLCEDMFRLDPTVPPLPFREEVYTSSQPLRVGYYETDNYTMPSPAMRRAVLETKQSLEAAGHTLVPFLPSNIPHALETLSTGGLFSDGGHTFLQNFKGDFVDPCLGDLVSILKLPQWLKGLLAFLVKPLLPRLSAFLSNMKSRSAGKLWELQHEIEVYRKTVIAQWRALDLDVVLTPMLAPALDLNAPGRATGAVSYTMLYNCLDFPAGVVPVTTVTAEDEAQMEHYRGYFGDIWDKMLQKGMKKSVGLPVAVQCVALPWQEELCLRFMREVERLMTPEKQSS

[2] = molecular target: T1, fatty-acid amide hydrolase (FAAH); assay: FAAH inhibitor screening assay kit (Cayman […]), dose-response […]; type: biochemical

SMILES | inhibition at 10 µM [1] [%] | IC50 [2] [µM]
O=C(Oc1ccc([N+](=O)[O-])cc1)N1CCN(Cc2cccc(Oc3ccccc3)c2)CC1 [JZL195] | 88 ± 1.26 | –
O=c1c(O)c(-c2ccc(O)cc2)oc2cc(O)cc(O)c12 [kaempferol] | – | 1.06
